The supplement of paper PMC11061612

Legend:
Assay in all cases: combination Emax (second highest fraction inhibited in the dose matrix, 72 h); higher = more inhibition; extreme values may be limits of the assay
[1] = tested on: LS-180 (Colorectal Carcinoma)
In short: (§1)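 Bliss excess equals the observed combination effect minus the expected value EA + EB − EA·EB, where EA and EB are the effects of each agent alone. Combination Emax is the second-highest inhibition within the matrix. Inhibition was scaled from CellTiter-Glo 2.0 luminescence, with 0 set by vehicle wells and 1 by blank wells, after 72 hours of two-drug dosing of cells plated in 1536-well plates.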

[2] = tested on: HCC-78 (Lung Adenocarcinoma)
In short: as §1

[3] = tested on: TE-15 (Esophageal Squamous Cell Carcinoma)
In short: as §1

[4] = tested on: MFE-296 (Endometrial Carcinoma)
In short: as §1

[5] = tested on: MDA-MB-361 (Breast Carcinoma)
In short: as §1

NB10 (Neuroblastoma) = tested on: NB10 (Neuroblastoma)
In short: as §1

[6] = tested on: EC-GI-10 (Esophageal Squamous Cell Carcinoma)
In short: as §1

[7] = tested on: Hs-578-T (Breast Carcinoma)
In short: as §1

[8] = tested on: Calu-3 (Lung Adenocarcinoma)
In short: as §1

[9] = tested on: DoTc2-4510 (Cervical Carcinoma)
In short: as §1

[10] = tested on: CCRF-CEM (T-Lymphoblastic Leukemia)
In short: as §1

[11] = tested on: KP-1N (Pancreatic Carcinoma)
In short: as §1

| SMILES | combination Emax [1] | combination Emax [2] | combination Emax [3] | combination Emax [4] | combination Emax [5] | combination Emax (NB10 (Neuroblastoma)) | combination Emax [6] | combination Emax [7] | combination Emax [8] | combination Emax [9] | combination Emax [10] | combination Emax [11] |
| --- | --- | --- | --- | --- | --- | --- | --- | --- | --- | --- | --- | --- |
| Cc1c2c(nn1C)CSCc1cc(n(C)n1)CSc1cc(c3ccccc3c1)OCCCc1c(C(=O)O)n(C)c3c-2c(Cl)ccc13 [AZD5991] + C=CCn1c(=O)c2cnc(Nc3ccc(N4CCN(C)CC4)cc3)nc2n1-c1cccc(C(C)(C)O)n1 [AZD1775] (first compound max 1 µM, partner max 1 µM) | 0.47 | 0.331 | 0.548 | 0.585 | 0.899 | 0.6 | 0.946 | 0.874 | 0.197 | 0.523 | 1 | 0.458 |
| CN(CCO)CC[C@H](CSc1ccccc1)Nc1ccc(S(=O)(=O)NC(=O)c2ccc(N3CCC([C@@H](O)c4ccccc4-c4ccc(Cl)cc4)CC3)cc2)cc1S(=O)(=O)C(F)(F)F [AZD4320] + CCN(CCO)CCCOc1ccc2c(Nc3cc(CC(=O)Nc4cccc(F)c4)[nH]n3)ncnc2c1 [AZD2811] (first compound max 1 µM, 7x7, partner max 1 µM) | 0.18 | 0.2 | 0.141 | 0.11 | 0.679 | 0.408 | 0.401 | 0.918 | 0.168 | 0.735 | 1 | 0.0993 |
| Cc1nc(Nc2ncc(C(=O)Nc3c(C)cccc3Cl)s2)cc(N2CCN(CCO)CC2)n1 [Dasatinib] + CC(=O)Nc1cccc(-n2c(=O)n(C3CC3)c(=O)c3c(Nc4ccc(I)cc4F)n(C)c(=O)c(C)c32)c1 [Trametinib] (first compound max 2 µM, 7x7, partner max 1 µM) | 0.747 | 0.347 | 0.782 | 0.224 | 0.229 | 0.658 | 0.503 | 0.922 | 0.619 | 0.469 | 0.149 | 0.478 |
| Cn1cnc2c(F)c(Nc3ccc(Br)cc3Cl)c(C(=O)NOCCO)cc21 [Selumetinib] + C=CCn1c(=O)c2cnc(Nc3ccc(N4CCN(C)CC4)cc3)nc2n1-c1cccc(C(C)(C)O)n1 [AZD1775] (first compound max 10 µM, partner max 1 µM) | 0.604 | 0.345 | 0.74 | 0.163 | 0.819 | 0.712 | 0.919 | 0.577 | 0.143 | 0.251 | 0.996 | 0.257 |
| C=CCn1c(=O)c2cnc(Nc3ccc(N4CCN(C)CC4)cc3)nc2n1-c1cccc(C(C)(C)O)n1 [AZD1775] + C[C@@H]1COCCN1C2=NC(=NC(=C2)C3(CC3)[S@](=N)(=O)C)C4=C5C=CNC5=NC=C4 [AZD6738] (first compound max 1 µM, partner max 10 µM) | 0.809 | 0.756 | 0.761 | 0.659 | 0.922 | 0.879 | 0.943 | 0.921 | 0.301 | 0.751 | 1 | 0.397 |
| Cc1cc2ncnn2cc1Nc1ncc2c(n1)n(C1CCOCC1)c(=O)n2C [AZD7648] + CN(C)CCCOc1ccc(-c2ccc3ncc4c(c3c2)n(C2CCOCC2)c(=O)n4C)cn1 [AZD0156] (first compound max 10 µM, 7x7, partner max 1 µM) | 0.358 | 0.263 | 0.236 | 0.147 | 0.565 | 0.307 | 0.161 | 0.513 | 0.215 | 0.26 | 0.521 | 0.188 |
| CC(=O)c1c(C)c2cnc(Nc3ccc(N4CCNCC4)cn3)nc2n(C2CCCC2)c1=O [Palbociclib] + CC1(C)CCC(CN2CCN(c3ccc(C(=O)NS(=O)(=O)c4ccc(NCC5CCOCC5)c([N+](=O)[O-])c4)c(Oc4cnc5[nH]ccc5c4)c3)CC2)=C(c2ccc(Cl)cc2)C1 [Venetoclax] (first compound max 10 µM, 7x7, partner max 1 µM) | 0.61 | 0.144 | 0.343 | 0.203 | 0.163 | 0.293 | 0.387 | 0.189 | 0.0931 | 0.0297 | 0.67 | 0.212 |
| NC1(C(=O)N[C@@H](CCO)c2ccc(Cl)cc2)CCN(c2ncnc3[nH]ccc23)CC1 [Capivasertib] + Cn1cnc2c(F)c(Nc3ccc(Br)cc3Cl)c(C(=O)NOCCO)cc21 [Selumetinib] (first compound max 10 µM, 7x7, partner max 10 µM) | 0.771 | 0.295 | 0.633 | 0.618 | 0.493 | 0.428 | 0.927 | 0.746 | 0.461 | 0.408 | 0.485 | 0.393 |
| COc1cccc(OCCCN)c1-c1cc(Nc2cnc(C#N)cn2)n[nH]1 [Prexasertib] + CCc1c2c(nc3ccc(O)cc13)-c1cc3c(c(=O)n1C2)COC(=O)[C@]3(O)CC [SN-38] (first compound max 1 µM, 7x7, partner max 0.3 µM) | 0.759 | 0.947 | 0.921 | 0.83 | 0.913 | 0.865 | 1 | 0.982 | 0.549 | 0.964 | 1 | 0.64 |
